Data reported in patent US11390543B2, “Sterilization method” (NEWSOUTH INNOVATIONS PTY LIMITED, priority 2017, dated 2022).
“And” between values parts separate entries of the source, which are not always exact repeats. Equal entries are not always repeated. Where two headings read alike, the source gives them in different places. Each block holds one molecule with its values, some of them ahead of it.

Key:
[1] = pH of the solution measured during bubbling experiments; type: physicochemical; conditions: for pH: […] NaCl
Protocol: The solubility at 52° C. (for viruses) and 43° C. (for E. coli) of the different gases used were obtained from literature values (http://www.engineeringtoolbox.com). The pH values were measured during the experiments and the Zeta potential values were measured during the experiments at a virus concentration of 10^8 per ml and E. coli concentration of 10^7 per ml.

[2] = cited from earlier work
[3] = test system: MS2 bacteriophage (ATCC 15597-B1); test: MS2 virus inactivation by bubbling gas through 0.17 M NaCl solution in bubble column evaporator, double layer plaque assay; type: cell-based; conditions: for MS2 virus inactivation, log reduction: inlet gas temperature 200° C., after 37.5 min; for MS2 virus log reduction: as time approached 10 mins
Protocol: MS2 bacteriophage (ATCC 15597-B1) was chosen as the model virus to evaluate the efficiency of methods of inactivation of viruses. MS2 is usually quantified by counting infectious units via a standard plaque assay that is commonly used for detection of MS2 in treated drinking water and waste-water.
Analysis of virus inactivation was carried out using the optimized Double Layer Plaque Assay technique described in Cormier et al, that detects only infectious viruses by using E. coli as their host.
A specific optimized Double Layer Plaque Assay technique as described in Cormier et al was used to assess the concentration of active MS2 viruses. This plaque assay method is commonly used for detection of MS2 in treated drinking water, wastewater and marine water. The water quality is assessed based on the ability of bacteriophages to kill the host bacteria and allow phages to propagate in a confluent lawn of bacterial host cells immobilized in a layer of agar.
A freeze-dried vial of MS2 bacteriophage was acquired from the American Type Culture Collection. Bacteriophage MS2 (ATCC 15597-B1) was replicated using Escherichia coli C-3000 (ATCC 15597) according to the International Standard ISO 10705-1 [31] and the Ultraviolet disinfection guidance manual of the United States Environmental Protection Agency. The zeta-potential of the MS2 viruses in 0.17 M NaCl solution with different gas bubbles was measured using a Malvern Zetasizer nano series instrument.
The gases were pumped through the electrical heater that maintained the gas temperature just above the sinter surface at the base of the bubble column evaporator at a particular temperature, depending on the experiment. The base of the bubble column evaporator was fitted with a 40-100 μm pore size glass sinter (type 2) of 135 mm diameter.
Once the aqueous solution was poured into the column, the temperature of the solution was measured with a thermocouple in the centre of the column solution. The gas was then passed through the sinter into the 300 ml solution to inactivate MS2 viruses or E. coli (in separate experiments). […]
Further experiments were also performed using MS2 virus in a 0.17 M NaCl solution (initial temperature of about 22° C.) in the BCE, with CO2 gas at different inlet temperatures (205° C., 150° C., 100° C., 11° C. and 20° C.) and with CO2 gas having an inlet temperature of 22° C. at different flow rates (27 l/min and 20 l/min).
Once the solutions with known concentration of coliphage and E. coli were prepared, experiments were conducted to study the inactivation of the coliphage with different gases and inlet gas temperatures. 1.3 ml samples were collected from 10 to 15 mm above the central area of the sinter every 6 minutes during 36 minutes for the virus experiments and every 2 min for the E. coli experiments. 0.07 ml of each sample was spotted in triplicate following the double layer plaque assay technique.
Plaque counts were performed for all 18-21 plates of each of the experiments. The mean and the standard deviation of each triplicated sample using a virus or bacteria survival factor: Log10(PFU/PFU0), where PFU0 is the initial number of PFU per sample and PFU is the PFU per sample after an exposure time in minutes. When plotted, a second order polynomial distribution was applied to fit the survival curves.

[4] = test system: Escherichia coli C-3000 (ATCC15597); test: E. coli inactivation by bubbling gas through 0.17 M NaCl solution in bubble column evaporator, plaque assay; type: cell-based
MS2 bacteriophage = conditions: pH 4.2, stirred beaker, […] NaCl, 22° C., no bubbling
Protocol: (§1) To evaluate the effect of solution pH on the inactivation of MS2 bacteriophage and E. coli experiments, comparison tests using 0.17 M NaCl solution at pH 4.1, were carried out in a separate beaker, in a water bath. During these experiments, samples were regularly taken out from the beaker and analysed as before.
(§2) To determine if the reduction in pH, due to dissolved CO2 (equations 1, 2, 3 and 4), was related to its disinfectant effects, two experiments with carbonic acid (H2CO3) at pH 4.2 were conducted in a continuous stirred beaker, one for viruses and another one for bacteria.
(§3) Carbonic acid (H2CO3) was produced by bubbling 27 l/min. of pure CO2 through the 0.17 M NaCl solution during 10 minutes at 22° C. […] Some authors describe a small, low pH inactivation effect on microbial cells, since membranes stop protons from penetration but low pH makes membrane more permeable to other substances like CO2 due to the chemical modification on the phospholipid bilayer of membranes.

E. coli [5] = conditions: pH 4.2, stirred beaker, […] NaCl, 22° C., no bubbling
Protocol: as §1, §2, §3

E. coli [6] = conditions: cited from earlier work
MS2 virus = conditions: 1 to 2 M of NaCl; cited from earlier work
[7] = E. coli experiments, gases at 150° C. (combustion gas 58° C.)
[8] = MS2 experiments, gases at 200° C. (combustion gas 60° C.)
[9] = in water at 43° C., 1 atm (E. coli section)
[10] = in water at 52° C., 1 atm (virus section)
[11] = inlet gas temperature 150° C., after 10 min

pH [1, 7]: 6.0 | pH [1, 8]: 6.0
SMILES: [Ar] [Argon]
Solubility [2, 9]: 0.040 Grams dissolved in 1 Kg of wat | Solubility [2, 10]: 0.035 Grams dissolved in 1 Kg of wat | MS2 virus inactivation, log reduction [3]: 1.5 log | E. coli inactivation, log reduction [4, 11]: 0.40 log

pH [1, 7]: 4.0 | pH [1, 8]: 4.0 | pH of the water when using CO2 gas in the bubble column ([1]; dropped from 5.9 in less than 45 seconds): 4.2
SMILES: O=C=O [Carbon dioxide]
Solubility [2, 9]: 0.950 Grams dissolved in 1 Kg of wat | Solubility [2, 10]: 0.800 Grams dissolved in 1 Kg of wat | MS2 virus log-reduction ([3]; 150° C. inlet CO2 temperature, after 7 min): 2.3 log | MS2 virus log-reduction ([3]; CO2 11° C. inlet temperature, 9° C. column temperature, after 6.5 minutes): 0.1 log | MS2 virus inactivation rate ([3]; CO2 (100%) at 200° C., in 3.5 minutes): 2.7 log | MS2 virus log-reduction ([3]; CO2 at 22° C., 20 l/min, after 2 minutes): 0.35 log | MS2 virus log reduction ([3]; CO2 at 22° C., 20 l/min): about 1 log | MS2 virus log-reduction ([3]; CO2 at 22° C., 27 l/min, after 2 minutes): 0.62 log | MS2 virus log reduction ([3]; CO2 at 22° C., 27 l/min): about 1 log | MS2 virus log-reduction ([3]; CO2 at 200° C., after 3 min): 3 log | MS2 virus log inactivation ([3]; CO2 at 200° C., within 5 min): 2.0 log | MS2 virus reduction ([3]; CO2 bubbles at room temperature, 10 min): 1 log | E. coli inactivation, log reduction ([4]; inlet gas temperature 150° C., after 10 min, listed as CO2): 2.84 log and 2.6 log

SMILES: O=C(O)O [Carbonic acid (H2CO3), Carbonic acid]
log virus reduction (MS2 bacteriophage): 0.002 log | E. coli log removal (E. coli [5]): 0.08 log

SMILES: [Cl-].[Na+] [NaCl]
inactivation of E. coli by NaCl solutions (E. coli [6]): do not inactivate E. coli | stability of MS2 virus in the presence of NaCl (MS2 virus): stable

SMILES: N#N [Nitrogen]
MS2 virus inactivation, log reduction [3]: 1.5 log | E. coli inactivation, log reduction [4, 11]: 1.74 log and 1.5 log

SMILES: O=O [Oxygen]
pH [1, 7]: 6.1 | pH [1, 8]: 6 | Solubility [2, 9]: 0.030 Grams dissolved in 1 Kg of wat | Solubility [2, 10]: 0.027 Grams dissolved in 1 Kg of wat | MS2 virus inactivation, log reduction [3]: 1.5 log | E. coli reduction ([4]; oxygen at 150° C. inlet gas temperature as printed): 0.65 log | E. coli inactivation, log reduction ([4]; oxygen bubbles at 150° C., after 3.5 minutes): 2.90 log
